Four molecules from publication doi:10.1101/2020.12.13.873687v1 (biorxiv, 2020) can be followed below.

In this assay the target is human amylin (islet amyloid polypeptide, IAPP) (Homo sapiens, UniProt P10997). The assay is described as follows: thioflavin T fluorescence amyloid aggregation inhibition. The class given is biochemical.
Chain of human amylin (islet amyloid polypeptide, IAPP) (P10997 34-70): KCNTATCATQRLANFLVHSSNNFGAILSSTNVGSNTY
One may read the IC50 as the concentration that gives 50% inhibition. A low value points to inhibition by little substance. In the case of `O=C(O[C@@H]1Cc2c(O)cc(O)cc2O[C@@H]1c1cc(O)c(O)c(O)c1)c1cc(O)c(O)c(O)c1` [Epigallocatechin gallate, reference compound], the IC50 is roughly 1 µM.
The same measure for `O=C(/C=C/c1ccc(O)c(O)c1)O[C@H](Cc1ccc(O)c(O)c1)C(=O)O` [rosmarinic acid]: 0.2 to 0.3 µM.
The same measure for `O=C(O)[C@H](O)Cc1ccc(O)c(O)c1` [salvianic acid A]: 90 µM; for `O=C(O)/C=C/c1ccc(O)c(O)c1` [caffeic acid]: 7.2 µM.
